In paper PMC11040934, “PI3Kγδ inhibition suppresses key disease features in a rat model of asthma” (Respiratory Research, 2024):
Like-named read-outs stand apart in the source and are kept apart here.

Key:
[1] = system: PI3K pathway (pAkt); assay: Rat model of allergic asthma: lung tissue pAkt (T308), target engagement; assay type: in vivo, Brown Norway rat; details: i.t. 1 hr before OVA challenge; AZD8154 0.02, 0.1, 0.3 mg/kg, budesonide 3 mg/kg; lung 2 hrs after challenge
Method: (§1) Male, adult, Brown Norway rats were obtained from Charles River Germany at a body weight range of 250-300 g. Animals were housed in temperature controlled individually ventilated cages in groups of 4 with food and water provided ad libitum. Animals underwent acclimatisation for at least 1 week prior to experimentation. Experiments were performed in accordance with the UK Home Office guidelines for animal welfare based on the Animals (Scientific Procedures) Act of 1986 and the ARRIVE guidelines (Fig. E2).
Initially a time course study was performed, followed by a characterisation study with compound & clinical comparator. […]
5 μL of supernatant (1:50 dilution) was taken for Bradford Assay which was run according to manufacturers’ instructions (BioRad, USA). […] Absorbance was measured using a spectrophotometer and total protein values interpolated to standard curve (595 nm; Spectromax, UK).
10 μg of protein from lung tissue extract were utilized in pAkt (T308); pSTAT3, pSTAT4 & STAT5a, b (Phospho-STAT Panel kit) MSD Assay plates (Meso Scale Delivery, USA) and run according to manufacturers’ instructions. Arbitrary electrochemiluminescence signals were read, the blank subtracted and values determined in each plate using a MSD S-Plex plate reader (Meso Scale Delivery, USA).

[2] = system: Brown Norway rats, OVA sensitised and challenged; assay: Rat model of allergic asthma: late asthmatic response (Penh, whole body plethysmography); assay type: in vivo, Brown Norway rat; details: 1-6 hrs after OVA challenge; i.t. dosing
Method: as §1
Initially a time course study was performed, followed by a characterisation study with compound & clinical comparator. For both studies, rats were sensitised on day 0, 14 and 21 by an intraperitoneal (i.p.) injection of 4 mL/kg (1 mL/rat) of ovalbumin (OVA;100 μg/rat) in Imject™ Alum (20 mg/rat aluminium hydroxide and 20 mg/rat magnesium hydroxide) or sham sensitised (Saline [Sal] in Imject™ Alum). […]
In both studies, 30 mins post-challenge, rats were placed unrestrained in Perspex plethysmographs connected to bias flow pumps (DSI Europe Ltd), with food and water ad libitum. 55 mins post-challenge, a five mins baseline recording was taken and the average penh and area under the curve (AUC) was recorded at 10 mins intervals for a total duration of 5 hrs and was used for analysis (DSI Europe Ltd).

[3] = system: Brown Norway rats, OVA sensitised and challenged; assay: Rat model of allergic asthma: BAL cellular inflammation; assay type: in vivo, Brown Norway rat; details: BAL 24 hrs after OVA challenge; i.t. dosing
Method: as §1
Initially a time course study was performed, followed by a characterisation study with compound & clinical comparator. For both studies, rats were sensitised on day 0, 14 and 21 by an intraperitoneal (i.p.) injection of 4 mL/kg (1 mL/rat) of ovalbumin (OVA;100 μg/rat) in Imject™ Alum (20 mg/rat aluminium hydroxide and 20 mg/rat magnesium hydroxide) or sham sensitised (Saline [Sal] in Imject™ Alum). On day 28 rats were challenged with 1% (w/v) aerosolised OVA in isotonic saline, or sham challenged with isotonic saline (30 mins).
Following blood collection, rats underwent tracheostomy and were cannulated. Rats were lavaged and bronchoalveolar lavage (BAL) fluid was collected (2 × 3 mL RPMI, 30 secs, 70% vol. retained). Slides were prepared using 100 μL of neat BAL, centrifuged (700 rpm, 5 mins, RT, low acceleration; Cytospin 2, Shandon, Runcorn, UK). 800 μL of neat BAL was collected and centrifuged (800×g, 10 mins, 4 °C). Supernatant was collected and stored (− 80 °C), and cell pellet was resuspended (200 μL, RPMI), total leukocytes were attained using a Sysmex XP-300 automated cell counter (Sysmex Ltd., Milton Keynes, UK). Remaining BAL was centrifuged (800×g, 10 mins, 4 °C) and supernatant collected and stored (− 80 °C).
BAL cytospin slides were placed in an automated stainer (Hematek 2000, Ames. Co., USA) and stained with a Modified-Wright stain (Siemens, Germany). Differential cell counts using a light microscope were performed based on morphological criteria were performed to determine percentages of macrophages/monocytes, lymphocytes, neutrophils & eosinophils. Total numbers of each distinct cell type were determined based on total leukocyte numbers.

[4] = target: rat PI3Kγ (Rattus norvegicus, UniProt D3ZFJ0); assay: PI3K γ assay: CXCL1/CINC-1-stimulated CD11b expression on rat whole blood neutrophils (FACS); assay type: cell-based; details: mean ± SEM, n = 3
rat PI3Kγ, sequence (D3ZFJ0 1-1102): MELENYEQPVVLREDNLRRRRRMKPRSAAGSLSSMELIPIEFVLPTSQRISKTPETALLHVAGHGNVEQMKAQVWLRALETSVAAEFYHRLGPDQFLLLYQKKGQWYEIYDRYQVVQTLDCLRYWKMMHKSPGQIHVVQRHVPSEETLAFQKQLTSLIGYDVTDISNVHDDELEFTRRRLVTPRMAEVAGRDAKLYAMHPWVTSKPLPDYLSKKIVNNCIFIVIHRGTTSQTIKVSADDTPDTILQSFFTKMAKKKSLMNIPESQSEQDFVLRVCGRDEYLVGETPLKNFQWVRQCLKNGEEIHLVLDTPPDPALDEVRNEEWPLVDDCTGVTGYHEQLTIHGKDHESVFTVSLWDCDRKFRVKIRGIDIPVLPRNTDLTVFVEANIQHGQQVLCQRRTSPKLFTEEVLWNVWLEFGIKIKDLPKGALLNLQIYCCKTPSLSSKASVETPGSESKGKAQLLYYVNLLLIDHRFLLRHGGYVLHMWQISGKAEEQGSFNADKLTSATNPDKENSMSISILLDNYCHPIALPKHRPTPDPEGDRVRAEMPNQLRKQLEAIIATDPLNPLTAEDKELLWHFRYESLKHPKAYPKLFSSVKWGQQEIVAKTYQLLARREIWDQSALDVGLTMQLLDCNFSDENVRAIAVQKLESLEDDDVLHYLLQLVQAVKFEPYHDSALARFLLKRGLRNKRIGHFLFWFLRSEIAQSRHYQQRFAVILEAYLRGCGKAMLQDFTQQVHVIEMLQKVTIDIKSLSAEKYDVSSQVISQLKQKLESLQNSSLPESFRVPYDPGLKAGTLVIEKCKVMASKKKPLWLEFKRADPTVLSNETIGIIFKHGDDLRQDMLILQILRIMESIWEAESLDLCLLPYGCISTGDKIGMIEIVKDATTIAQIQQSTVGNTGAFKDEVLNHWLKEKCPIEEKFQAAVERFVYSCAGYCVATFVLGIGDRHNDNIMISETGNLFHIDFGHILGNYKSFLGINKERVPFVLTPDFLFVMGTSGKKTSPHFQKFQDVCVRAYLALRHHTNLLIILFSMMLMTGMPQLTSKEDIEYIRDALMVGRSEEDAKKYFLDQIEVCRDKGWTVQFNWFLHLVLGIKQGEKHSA
Method: PI3K γ assay: whole blood from male Sprague Dawley rat was collected in heparin coated tubes and pre-treated (1 hr., 37 °C, 5% CO2) with vehicle DMSO or PI3K inhibitors followed by stimulation with Rat CXCL1/CINC-1 (515-CN-050, R&D) at 500 ng/mL (EC80 determined in house; 1 hr., RT). Next, cells were stained with Fc block (550,273, BD bioscience, 1:100; 20 mins, RT), CD45R-B220-PeCy7 (HIS24) (25–0460-82, eBioscience, 1:100), CD43-PE (W3/13) (202,812, Biolegend, 1:100), HIS48-FITC (11–0570-82, eBioscience, 1:100), CD11b-APC (562,102, BD Bioscience, 1:100). Cells were lysed and fixed with BD FACS lysing solution (349,202, BD Biosciences; 45 mins, RT) before FACS acquisition (BD LSRFortessa™). Data were analysed using FlowJo 9.9 software (TreeStar). FACS gating strategy: lymphocytes (FSC-A vs SSC-A), doublets exclusion (FSC-W vs FSC-H), neutrophil identification B220-, HIS48hi, CD43hi, SSC-Ahi, geom. MFI for CD11b on neutrophils. IC50 values were determined in Graph Pad through a nonlinear fit on log transform data: log inhibitor vs response, variable slope, 4 parameters. Fraction unbound in diluted whole blood is calculated using the following equation: fu^′=DF·fub/1+DF-1·fub where fu’ is the fraction unbound in diluted whole blood; fub is the fraction unbound in undiluted whole blood; DF is the dilution factor. Fraction unbound in 100% whole blood (fub) is calculated as fup/BP, where fup is the experimentally determined fraction unbound in undiluted plasma and BP is the experimentally determined blood to plasma partition ratio of drug Table 1.

IC50 ([4]; CD11b expression on neutrophils, read-out: rat γ total IC50): 28.7 ± 4.1 nM | IC50 ([4]; corrected for protein binding in the assay, read-out: rat γ free IC50): 0.54 ± 0.08 nM
Compound: Cc1nc(Nc2cccc(N3CCCC3=O)n2)sc1-c1cc2c(c(S(C)(=O)=O)c1)C(=O)N([C@@H](C)C1CC1)C2 [AZD8154]
lung tissue pAkt levels [1]: dose related suppression | LAR (Penh, AUC) [2]: statistically significant dose-dependent decrease | BAL eosinophils [3]: statistically significant decrease | BAL neutrophils [3]: statistically significant decrease
